Assay results reported in patent US20240041795A1, “Cyclic Ketone Compounds and Applications Thereof” (priority 2021, published 2024).

Experiments:
male SD rats = test: Antagonism of compounds against general anesthesia maintained by continuous infusion of propofol (anesthesia recovery/awakening time); assay type: in vivo; conditions: for The average of awakening time: SD rats
Description: The preparation method was the same as that of Example 1.
24 male SD rats with a body weight range of 250-300 g were randomly divided into 4 groups, with 6 rats in each group. Continuous anesthesia induction was performed using propofol (22.11 mg/kg, 1.5×EDO, and then maintained at a rate of 1 mg/(kg min) for 30 min. After drug withdrawal, compound 85 at doses of 10 mg/kg, 20 mg/kg, and 50 mg/kg, as well as 50 mg/kg of the test compound solutions (using medium and long chain fat emulsion injection as solvent) or equal volume of medium and long chain fat emulsion injection was immediately injected, respectively, and the anesthesia recovery time of the […] after stopping the medication was observed and recorded. Among them, the anesthesia recovery time refers to the time from the cessation of propofol infusion to the recovery of the righting reflex in mice.

Male ICR mice = test: Antagonism of test compounds against general anesthesia induced by general anesthetics (total anesthesia time, loss to recovery of righting reflex); assay type: in vivo
Description: The preparation method: A suitable amount of the compound to be tested was weighed, to which was added a suitable amount of medium and long chain fat emulsion injection with a pipette, and thus a 50 mmol/L solution of the test compound was prepared. After filtering with a 0.22 μm microporous membrane, the solution was immediately used.
Male ICR mice weighing 25 g±1 g were randomly divided into 8 groups, with 8 mice in each group. […] After maintaining the disappearance of the mouse righting reflex for 30 seconds, the solution of each test compound (50 mg/kg, using medium and long chain fat emulsion injection as solvent) or equal volume of medium and long chain fat emulsion injection was respectively injected, and the total anesthesia time of the mice was observed and recorded. Among them, the total anesthesia time refers to the time from the disappearance of the mouse righting reflex to the recovery of the mouse righting reflex.

[1] = test drug 50 mg/kg after withdrawal of propofol infusion (1 mg/(kg min) for 30 min)
[2] = Propofol 22.11 mg/kg (1.5×ED50) i.v. tail vein induction, test compound 50 mg/kg in fat emulsion injected after 30 s loss of righting reflex
[3] = Etomidate 4.48 mg/kg (2×ED50) i.v. tail vein induction, test compound 50 mg/kg in fat emulsion injected after 30 s loss of righting reflex
[4] = Ketamine induction (dose not given), test compound 50 mg/kg in fat emulsion
[5] = Remimazolam 57.34 mg/kg (1.5×ED50) i.v. tail vein induction, test compound 50 mg/kg in fat emulsion injected after 30 s loss of righting reflex

CC12CCC(C(C(=O)O)C1=O)C2(C)C (stereo not drawn) [Compound 67]
The average of awakening time (male SD rats; [1]): 3.04 ± 0.18 min
The average of total anesthesia time (Male ICR mice; [2]): 2.14 ± 0.32 min

CSC1C(=O)C2(C)CCC1C2(C)C (stereo not drawn) [Compound 68]
The average of total anesthesia time (Male ICR mice; [3]): 2.11 ± 0.54 min
The average of total anesthesia time (Male ICR mice; [2]): 4.05 ± 0.15 min

CC1(CBr)C2CCC1(CBr)C(=O)C2Br (stereo not drawn) [Compound 70]
The average of total anesthesia time (Male ICR mice; [4]): 3.49 ± 0.40 min

CC12CCC(CC1=O)C2(C)C (stereo not drawn) [Compound 85]
Reversal of the anesthesia maintenance effect of continuous infusion of propofol (male SD rats; continuous propofol infusion, 10, 20, 50 mg/kg): could dose-dependently shorten the anesthesia recovery time of rats
The average of awakening time (male SD rats; test drug 10 mg/kg after withdrawal of propofol infusion (1 mg/(kg min) for 30 min)): 4.11 ± 1.22 min
The average of awakening time (male SD rats; test drug 20 mg/kg after withdrawal of propofol infusion (1 mg/(kg min) for 30 min)): 3.68 ± 1.12 min
The average of awakening time (male SD rats; [1]): 0.36 ± 0.98 min
The average of total anesthesia time (Male ICR mice; [3]): 0.46 ± 0.25 min
The average of total anesthesia time (Male ICR mice; [4]): 3.01 ± 0.45 min
The average of total anesthesia time (Male ICR mice; [2]): 0.47 ± 0.21 min
The average of total anesthesia time (Male ICR mice; [5]): 0.45 ± 0.21 min

CC12CCC(C(Br)C1=O)C2(C)C (stereo not drawn) [Compound 86]
The average of total anesthesia time (Male ICR mice; [2]): 1.56 ± 0.21 min
The average of total anesthesia time (Male ICR mice; [5]): 1.49 ± 0.62 min

CC12CCC(C(I)C1=O)C2(C)C (stereo not drawn) [Compound 87]
The average of total anesthesia time (Male ICR mice; [3]): 1.56 ± 0.45 min
The average of total anesthesia time (Male ICR mice; [5]): 0.84 ± 0.78 min

CC12CCC(C(=O)C1=O)C2(C)C (stereo not drawn) [Compound 104]
The average of total anesthesia time (Male ICR mice; [4]): 2.67 ± 0.30 min

CC1(Br)C(=O)C2(C)CCC1C2(C)C (stereo not drawn) [Compound 120]
The average of total anesthesia time (Male ICR mice; [4]): 3.72 ± 0.24 min

CC12CCC(CC1=O)C2(C)CBr (stereo not drawn) [Compound 130]
The average of awakening time (male SD rats; [1]): 3.41 ± 0.52 min
The average of total anesthesia time (Male ICR mice; [2]): 1.79 ± 0.09 min

CC12CCC(CC1=O)C2(C)CI (stereo not drawn) [Compound 135]
The average of total anesthesia time (Male ICR mice; [3]): 1.72 ± 0.50 min

CC12CCC(CC1=O)C2(C)CC(=O)O (stereo not drawn) [Compound 139]
The average of total anesthesia time (Male ICR mice; [3]): 2.64 ± 0.89 min
The average of total anesthesia time (Male ICR mice; [5]): 1.29 ± 0.63 min

CC12CCC(CC1=O)C2(C)CO (stereo not drawn) [Compound 140]
The average of total anesthesia time (Male ICR mice; [3]): 2.05 ± 0.33 min
The average of total anesthesia time (Male ICR mice; [2]): 4.13 ± 0.20 min
The average of total anesthesia time (Male ICR mice; [5]): 1.16 ± 0.92 min

CC12CCC(CC1=O)C2(C)CBr (stereo not drawn) [Compound 150]
The average of total anesthesia time (Male ICR mice; [2]): 1.26 ± 0.17 min

CC12CCC(CC1=O)C2(C)CO (stereo not drawn) [Compound 157]
The average of total anesthesia time (Male ICR mice; [3]): 2.08 ± 0.32 min
The average of total anesthesia time (Male ICR mice; [2]): 2.52 ± 0.21 min

CCC1(C)C2CCC1(C)C(=O)C2 (stereo not drawn) [Compound 163]
The average of awakening time (male SD rats; [1]): 1.33 ± 0.79 min
The average of total anesthesia time (Male ICR mice; [3]): 2.17 ± 0.60 min
The average of total anesthesia time (Male ICR mice; [2]): 1.51 ± 0.51 min
The average of total anesthesia time (Male ICR mice; [5]): 0.77 ± 0.02 min

CC12CCC(C(Cl)C1=O)C2(C)C (stereo not drawn) [Compound 168]
The average of total anesthesia time (Male ICR mice; [5]): 0.86 ± 0.42 min

CC1(C)[C@H]2CC[C@]1(C)C(=O)C2 [Compound 171]
The average of awakening time (male SD rats; [1]): 0.34 ± 0.89 min
The average of total anesthesia time (Male ICR mice; [3]): 1.97 ± 0.07 min
The average of total anesthesia time (Male ICR mice; [4]): 3.64 ± 0.89 min
The average of total anesthesia time (Male ICR mice; [2]): 0.42 ± 0.32 min
The average of total anesthesia time (Male ICR mice; [5]): 0.73 ± 0.57 min

CC12CCC(CC1=O)C2(C)C(Cl)Br (stereo not drawn) [Compound 262]
The average of total anesthesia time (Male ICR mice; [4]): 3.92 ± 0.83 min

CC1(C)C2CCC1(CCl)C(=O)C2 (stereo not drawn) [Compound 269]
The average of awakening time (male SD rats; [1]): 3.29 ± 0.81 min
The average of total anesthesia time (Male ICR mice; [2]): 2.15 ± 0.98 min
The average of total anesthesia time (Male ICR mice; [5]): 1.39 ± 0.45 min

CC1(C)C2CCC1(CBr)C(=O)C2 (stereo not drawn) [Compound 270]
The average of total anesthesia time (Male ICR mice; [3]): 2.50 ± 0.99 min
The average of total anesthesia time (Male ICR mice; [2]): 2.49 ± 0.15 min
The average of total anesthesia time (Male ICR mice; [5]): 1.01 ± 0.05 min

CC1(C)C2CCC1(CO)C(=O)C2 (stereo not drawn) [Compound 273]
The average of total anesthesia time (Male ICR mice; [2]): 1.43 ± 0.43 min

CC12CCC(Br)(CC1=O)C2(C)C (stereo not drawn) [Compound 561]
The average of total anesthesia time (Male ICR mice; [3]): 2.03 ± 0.61 min

CC12CCC(O)(CC1=O)C2(C)C (stereo not drawn) [Compound 563]
The average of total anesthesia time (Male ICR mice; [2]): 2.62 ± 0.18 min

CC12CCC(F)(CC1=O)C2(C)C (stereo not drawn) [Compound 565]
The average of awakening time (male SD rats; [1]): 2.58 ± 0.56 min
The average of total anesthesia time (Male ICR mice; [3]): 0.87 ± 0.93 min
The average of total anesthesia time (Male ICR mice; [4]): 3.46 ± 0.15 min
The average of total anesthesia time (Male ICR mice; [2]): 2.40 ± 0.89 min

CC12CCC(CC(=O)O)(CC1=O)C2(C)C (stereo not drawn) [Compound 572]
The average of total anesthesia time (Male ICR mice; [5]): 0.85 ± 0.37 min

CC1C(=O)CC2(C(C)C)CC12 (stereo not drawn) [Compound 580]
The average of awakening time (male SD rats; [1]): 2.76 ± 0.20 min
The average of total anesthesia time (Male ICR mice; [3]): 1.36 ± 0.84 min
The average of total anesthesia time (Male ICR mice; [2]): 3.12 ± 0.12 min
The average of total anesthesia time (Male ICR mice; [5]): 0.69 ± 0.25 min

CC1C(=O)C2(C)CCC1(C)C2 (stereo not drawn) [Compound 581]
The average of awakening time (male SD rats; [1]): 4.66 ± 0.60 min
The average of total anesthesia time (Male ICR mice; [3]): 1.07 ± 0.32 min
The average of total anesthesia time (Male ICR mice; [2]): 2.22 ± 0.27 min
The average of total anesthesia time (Male ICR mice; [5]): 1.32 ± 0.31 min

CC1CCC(C(C)C)CC1=O (stereo not drawn) [Compound 582]
The average of awakening time (male SD rats; [1]): 0.96 ± 0.23 min
The average of total anesthesia time (Male ICR mice; [3]): 1.27 ± 0.83 min
The average of total anesthesia time (Male ICR mice; [2]): 1.39 ± 0.08 min
The average of total anesthesia time (Male ICR mice; [5]): 1.49 ± 0.21 min

CC12CC(Br)C(CC1=O)C2(C)C (stereo not drawn) [Compound 608]
The average of total anesthesia time (Male ICR mice; [2]): 4.08 ± 0.34 min

CC12CC(Cl)C(CC1=O)C2(C)C (stereo not drawn) [Compound 610]
The average of awakening time (male SD rats; [1]): 2.72 ± 0.36 min
The average of total anesthesia time (Male ICR mice; [5]): 1.32 ± 0.06 min

CC12CC(O)C(CC1=O)C2(C)C (stereo not drawn) [Compound 616]
The average of total anesthesia time (Male ICR mice; [3]): 1.15 ± 0.83 min
The average of total anesthesia time (Male ICR mice; [2]): 2.70 ± 0.63 min
The average of total anesthesia time (Male ICR mice; [5]): 0.94 ± 0.30 min

CC(=O)OC1CC2(C)C(=O)CC1C2(C)C (stereo not drawn) [Compound 626]
The average of total anesthesia time (Male ICR mice; [3]): 2.05 ± 0.54 min

CC1(C)C2CC(=O)C1(C)C(Cl)C2 (stereo not drawn) [Compound 631]
The average of awakening time (male SD rats; [1]): 2.85 ± 0.58 min
The average of total anesthesia time (Male ICR mice; [2]): 3.30 ± 0.79 min
The average of total anesthesia time (Male ICR mice; [5]): 0.70 ± 0.32 min

CC1(C)C2CC(=O)C1(C)C(Br)C2 (stereo not drawn) [Compound 633]
The average of awakening time (male SD rats; [1]): 2.64 ± 0.19 min
The average of total anesthesia time (Male ICR mice; [3]): 0.96 ± 0.92 min
The average of total anesthesia time (Male ICR mice; [4]): 3.35 ± 0.90 min
The average of total anesthesia time (Male ICR mice; [2]): 2.04 ± 0.63 min

CC1(C)C2CC(=O)C1(C)C(Cl)(Br)C2 (stereo not drawn) [Compound 643]
The average of awakening time (male SD rats; [1]): 1.01 ± 0.29 min
The average of total anesthesia time (Male ICR mice; [3]): 2.80 ± 0.67 min

CC1CC2CC(=O)C1(C)C2(C)C (stereo not drawn) [Compound 661]
The average of awakening time (male SD rats; [1]): 2.39 ± 0.75 min
The average of total anesthesia time (Male ICR mice; [2]): 2.89 ± 0.64 min
The average of total anesthesia time (Male ICR mice; [5]): 0.55 ± 0.76 min

[2H]C1C(=O)C2(C)CCC1C2(C)C (stereo not drawn) [Compound 664]
The average of total anesthesia time (Male ICR mice; [4]): 3.20 ± 0.77 min
